“Also recorded” adds a separate entry of the source. Read-outs that look alike come from different tables or passages of the source.
Columns and labels:
[1] = tested on: Histone deacetylase (HDAC); assay: Histone deacetylase assay (Fluor-de-Lys) in MCF-7 cells; format: cell-based, human
Method: Histone deacetylase activity was determined using Fluor-de-Lys® HDAC fluorometric activity assay kit (Enzo Life Sciences International, Inc., Plymount Meeting, Pa., U.S.A.). […] Fluorescence was measured using a Fluoroskan Ascent FL (Labsystem, Finland) plate reader, with excitation at 360 nm and emission at 460 nm. For comparison purpose, the HDAC activity was also measured in nuclear extracts of MCF-7-treated cells by means of the same fluorometric activity assay kit. In this latter case, MCF-7 nuclear extracts were obtained as follow: cell pellets were re-suspended in lysis buffer [Tris.HCl (10 mM, pH 8.0), KCl (60 mM), EDTA (1.2 mM), DTT (1 mM), PMSF (0.05 mM), NP-40 (0.05%)] and kept on ice for 10 min. Subsequently, samples were centrifuged at 1000 g and re-suspended in the nuclear extraction buffer [Tris.HCl (20 mM, (pH 8.0), NaCl (420 mM), MgCl2 (0.7 mM), EDTA (0.25 mM), glycerol (25%)] for 30 min at 4° C., and then centrifuged at 15000 g for 15 min at 4° C.
The complexes described here were specifically designed to release either VPA of PhB inside the cells in the hope that they will inhibit HDAC activity paving the way for more efficient DNA platination. Thus, in addition to measuring the levels of DNA platination, we also measured the ability of these pro-drugs to inhibit HDAC activity in cells. […] For comparison purposes, the HDAC inhibitory effect determined by tested complexes was also assayed in isolated nuclei of MCF-7 treated cells (FIG. 3B).
The HDAC activity was determined by the Fluor de Lys® Fluorescent Cellular Activity Assay (Enzo Life Sciences).
Also, MCF-7 cells were incubated for 24 h with increasing concentrations of compounds I-VIII and their HDAC activity was determined. The IC50 values for the inhibition of HDAC activity in the cells are depicted in FIG. 3C.

HCT-15 cells = assay: MTT cytotoxicity assay, HCT-15; format: cell-based, human
Method: (§1) Cisplatin (CDDP) and oxaliplatin (OXP) were dissolved just before the experiment in a 0.9% NaCl solution. […]
(§2) Cancer Res. 1988, 48, 589-601]. […] Triplicate cultures were established for each treatment.
(§3) MTT assay. […] Triplicate cultures were established for each treatment.
(§4) The two dimers, 3a and 3b, as well as compounds 1a and 2a were screened against six human cancer cell lines representative of lung (H157), colon (HCT-15), cervical (A431), ovarian (2008) and pancreatic (PSN1) cancers, along with melanoma (A375). Cytotoxicity was evaluated by means of the MTT test after 72 h of treatment and the in vitro antitumor potential of newly synthesized derivatives was compared to that of the reference metallo-drugs CDDP and OXP.

A375 cells = assay: MTT cytotoxicity assay, A375; format: cell-based, human
Method: as §1, §2, §3, §4

2008 cells = assay: MTT cytotoxicity assay, 2008; format: cell-based, human; settings: 2008, 72 h, MTT
Method: as §3, §4

A431 cells = assay: MTT cytotoxicity assay, A431; format: cell-based, human; settings: A431, 72 h
Method: as §3, §4

H157 cells = assay: MTT cytotoxicity assay, H157; format: cell-based, human; settings: H157, 72 h
Method: as §3, §4

PSN1 cells = assay: MTT cytotoxicity assay, PSN1; format: cell-based, human; settings: PSN1, 72 h, MTT
Method: as §3, §4

HCT-15 spheroids = assay: 3D spheroid APH assay, HCT-15; format: cell-based, human; settings: HCT-15 spheroids, 72 h, APH test
Text: (§5) Acid phosphatase (APH) assay. A modified APH assay, which is based on quantification of cytosolic acid phosphatase activity, was used for determining cell viability in spheroids. […] Triplicate cultures were established for each treatment. […] Evaluation was based on means from at least four independent experiments.
(§6) In order to improve the predictive capacity of the in vitro assays, we tested the activity in three three-dimensional (3D) cell cultures; human colon cancer cells, HCT-15, and human pancreatic cancer cells, KRAS wild type BxPC3 cells KRAS mutated PSN-1 cells. The cancer spheroids were treated with 3a and 3b for 72 h and the cell viability was assessed by means of the APH assay (Table 6). For comparison purposes, the cytotoxicities of CDDP and OXP were evaluated under the same experimental conditions.

BxPC3 spheroids = assay: 3D spheroid APH assay, BxPC3; format: cell-based, human; settings: 72 h, APH test
Text: as §5, §6

PSN-1 spheroids = assay: 3D spheroid APH assay, PSN-1; format: cell-based, human; settings: PSN-1 spheroids, 72 h, APH test
Text: as §5, §6

[2] = tested on: human embryonic kidney HEK293 cells; assay: MTT cytotoxicity against non-tumor cells; format: cell-based
Method: as §3
The cytotoxic activity of derivatives 3a and 3b was also evaluated against non-tumor cells, namely human embryonic kidney HEK293 cells (Table 7). Both compounds 3a and 3b were more cytotoxic than CDDP.

A2780 cells = assay: MTT cytotoxicity assay, A2780; format: cell-based, human; settings: A2780, 72 h exposure, MTT; read-out: IC50 (median growth inhibitory concentration)
Method: (§7) Platinum(IV) complexes were dissolved in DMSO to stock solutions of 1 mg/mL just before the experiment, and a calculated amount of drug solution was added to the cell growth medium to a final solvent concentration of 0.5%, which had no discernible effect on cell killing. Cisplatin (CDDP) and oxaliplatin (OXP) were dissolved just before the experiment in a 0.9% NaCl solution.
(§8) Human prostate adenocarcinoma (PC3) cells were obtained from European Collection of Cell Cultures (ECACC, Salisbury, UK). Human ovarian cancer cell lines A2780 and its cisplatin resistant variant, A2780cisR, were kindly provided by Prof.
as §2

A2780cisR cells = assay: MTT cytotoxicity assay, A2780cisR (cisplatin resistant); format: cell-based, human; settings: for IC50: 72 h exposure, MTT, read-out: IC50 (median growth inhibitory concentration); for resistance factor: ratio IC50 resistant (A2780cisR) / sensitive (A2780) cells
Method: as §7, §8, §2

MCF-7 cells = assay: MTT cytotoxicity assay, MCF-7; format: cell-based, human; settings: MCF-7, 72 h exposure, MTT; read-out: IC50 (median growth inhibitory concentration)
Method: (§9) Cisplatin (CDDP) and oxaliplatin (OXP) were dissolved just before the experiment in a 0.9% NaCl solution.
as §8
(§10) Triplicate cultures were established for each treatment.

A549 cells = assay: MTT cytotoxicity assay, A549; format: cell-based, human; settings: A549, 72 h exposure, MTT; read-out: IC50 (median growth inhibitory concentration)
Method: as §9, §8, §10

PC3 cells = assay: MTT cytotoxicity assay, PC3; format: cell-based, human; settings: PC3, 72 h exposure, read-out: IC50 (median growth inhibitory concentration)
Method: as §9, §8, §10

A498 cells = assay: MTT cytotoxicity assay, A498; format: cell-based, human; settings: A498, 72 h exposure, read-out: IC50 (median growth inhibitory concentration)
Method: as §7, §8, §2

BxPC3 cells = assay: MTT cytotoxicity assay, BxPC3; format: cell-based, human; settings: BxPC3, 72 h exposure, MTT; read-out: IC50 (median growth inhibitory concentration)
nine cancer cell lines = assay: MTT cytotoxicity, over the nine cancer cell lines
[3] = octanol/water partition, shake-flask method; format: physicochemical
Method: To quantify the hydrophobicity of the platinum complexes, partition coefficients (log P) values for octanol/water partition were measured using the shake-flask method.

[4] = HCT-15, 72 h exposure, MTT (Table 1), read-out: IC50 (median growth inhibitory concentration)
[5] = A375, 72 h exposure, MTT (Table 1), read-out: IC50 (median growth inhibitory concentration)
[6] = read-out: average IC50 values for the nine cancer cell lines, mean over nine cell lines, 72 h MTT

| SMILES | IC50 (A2780 cells) | IC50 (A2780cisR cells; A2780cisR) | resistance factor (A2780cisR cells) | IC50 (MCF-7 cells) | IC50 (A549 cells) | IC50 (HCT-15 cells; [4]) | IC50 (PC3 cells) | IC50 (A498 cells) | IC50 (BxPC3 cells) | IC50 (A375 cells; [5]) | IC50 (nine cancer cell lines; [6]) | further results |
| --- | --- | --- | --- | --- | --- | --- | --- | --- | --- | --- | --- | --- |
| CC(/C=C/C(=O)NO)=C\[C@@H](C)C(=O)c1ccc(N(C)C)cc1 [TSA, trichostatin A] | – | – | – | – | – | – | – | – | – | – | – | inhibition of HDAC activity ([1]; MCF-7, 24 h incubation with IC50 concentrations): about 90% |
| Cc1c(C)c2c3c4c1=CC=C[N]4[Pt+2][N]3C=CC=2.N[C@H]1CCCC[C@@H]1N [[Pt(DACH)(56Phen)], reference compound] | – | – | – | – | – | – | – | – | – | – | – | IC50 (HCT-15 cells; HCT-15, 72 h, MTT (Table 5), read-out: IC50 (μM) ± S.D.): 0.69 ± 0.11 µM; IC50 (A375 cells; A375, 72 h, MTT (Table 5), read-out: IC50 (μM) ± S.D.): 1.12 ± 0.42 µM; IC50 (2008 cells): 0.74 ± 0.12 µM; IC50 (A431 cells): 0.28 ± 0.08 µM; IC50 (H157 cells): 0.16 ± 0.01 µM; IC50 (PSN1 cells): 0.25 ± 0.08 µM; IC50 (HCT-15 spheroids): 60.2 ± 2.92 µM; IC50 (BxPC3 spheroids): 100 ± 12.1 µM; IC50 (PSN-1 spheroids): 55.5 ± 9.75 µM; IC50 ([2]; HEK293 non-tumor cells, 72 h, MTT): 1.12 ± 0.87 µM; SI (selectivity index) ([2]; ratio between average IC50 of non-tumor cells and IC50 of malignant cells): 0.9 |
| C1CCNCC1.CCCC(CCC)C(=O)[O][Pt]([OH])([Cl])[Cl].CCCCN [Compound V, trans-[Pt(n-butylamine)(VPA)(OH) (piperidine) Cl2]] | 1180 ± 330 nM | 1290 ± 290 nM | 1.1 | 8.8 ± 1.48 µM | 15.5 ± 1.13 µM | 14.4 ± 2.05 µM | 16.8 ± 1.41 µM | 8.64 ± 0.95 µM | 4.43 ± 1.94 µM | 12.4 ± 2.93 µM | 9.27 µM | fold more potent/effective than cisplatin (A2780cisR cells; A2780cisR): roughly 11 fold |
| CCCC(CCC)C(=O)[O][Pt]([NH2])([NH2])([Cl])([Cl])[O]C(C)=O [II, Pt(NH3)2Cl2(C2H3O2)(C8H15O2)]] | 1020 ± 600 nM | 1620 ± 300 nM | 1.6 | 5.74 ± 1.1 µM | 8.36 ± 1.14 µM | 6.36 ± 1.03 µM | 7.32 ± 1.24 µM | 4.21 ± 0.95 µM | 3.54 ± 0.66 µM | 2.17 ± 0.53 µM | 4.48 µM | Log P [3]: 0.17 ± 0.02; fold reduction in potency compared with ctc-[Pt(NH3)2(VPA)2Cl2] (nine cancer cell lines; range over cell lines): 1.7-7.9 fold |
| CC(=O)[O][Pt]([NH2])([NH2])([Cl])([Cl])[O]C(=O)CCCc1ccccc1 [VII, Ctc-[Pt(NH3)2(C2H3O2)(C10H11O2)Cl2]] | 650 ± 40 nM | 1540 ± 270 nM | – | 3.43 ± 0.14 µM | 7.16 ± 1.11 µM | 5.17 ± 0.85 µM | 4.34 ± 1.25 µM | 8.42 ± 1.47 µM | 10.1 ± 1.69 µM | 6.25 ± 1.94 µM | 4.8 µM | factors more potent than cisplatin (nine cancer cell lines; in five out of the nine cell lines): 2.1-9 fold; IC50 (nine cancer cell lines; read-out: range of IC50 values over the cell lines, lowest-highest over nine cell lines): 0.65 to 10.1 µM |
| O=C(O)CCCc1ccccc1 [Compound 4-PB, 4-phenylbutyric acid, reference compound] | – | – | – | – | – | – | – | – | – | – | – | IC50 for cellular inhibition of HDAC activity (in words) ([1]; MCF-7, 24 h, increasing concentrations): significantly higher; cytotoxicity IC50 values (in words) (nine cancer cell lines; uncoordinated ligands, listed as PhB): millimolar range; also recorded: mM range |
